Measured values published in ChEMBL document CHEMBL3393020, “Biofilm inhibition of linezolid-like Schiff bases: synthesis, biological activity, molecular docking and in silico ADME prediction” (Bioorg Med Chem Lett, 2015).
Values after ≈ are worked out from the molar mass of the structure shown. Active and inactive are the calls of the source. The calls are words filed in the database; no cut-off is given here.

Tests used:
[1] = Retardation factor of the compound; assay type: physicochemical
Pseudomonas aeruginosa [2] = experiment: Antibacterial activity against Pseudomonas aeruginosa NCIM-2036 incubated for 24 hrs by two fold serial dilution method; assay type: functional; conditions: NCIM-2036, 24 h
Escherichia coli = experiment: Antibacterial activity against Escherichia coli NCIM-2256 incubated for 24 hrs by two fold serial dilution method; assay type: functional; conditions: NCIM-2256, 24 h
Bacillus subtilis = experiment: Antibacterial activity against Bacillus subtilis NCIM-2063 incubated for 24 hrs by two fold serial dilution method; assay type: functional; conditions: NCIM-2063, 24 h
Pseudomonas aeruginosa [3] = experiment: Inhibition of biofilm formation of Pseudomonas aeruginosa PAO1 incubated for 18 hrs by crystal violet staining based spectroscopy; assay type: functional, organism-based; conditions: PAO1, 18 h
Pseudomonas aeruginosa [4] = experiment: Inhibition of biofilm formation of Pseudomonas aeruginosa PAO1 incubated for 15 mins by field emission scanning electron microscopy; assay type: functional, organism-based
Pseudomonas aeruginosa [5] = experiment: Effect on planktonic cells growth of Pseudomonas aeruginosa PAO1 incubated for 15 mins by field emission scanning electron microscopy; assay type: organism-based; conditions: 0.25 h

Row | SMILES | Rf [1] | MIC (Pseudomonas aeruginosa [2]) | MIC (Escherichia coli) | MIC (Bacillus subtilis) | IC50 (Pseudomonas aeruginosa [3]) | inhibition (Pseudomonas aeruginosa [4]) | Activity (Pseudomonas aeruginosa [5])
1 | Fc1cc(/N=C/c2ccccc2)ccc1N1CCOCC1 | 0.64 | 20 µg/mL (≈ 70.3 µM) | 35 µg/mL (≈ 123 µM) | 30 µg/mL (≈ 106 µM) | 39.4 µM |  | 
2 | O=C(O)c1cn(C2CC2)c2cc(N3CCNCC3)c(F)cc2c1=O [CIPROFLOXACIN] |  |  | 25 µg/mL (≈ 75.4 µM) |  |  |  | 
3 | Oc1ccc(/C=N/c2ccc(N3CCOCC3)c(F)c2)cc1O | 0.59 | 20 µg/mL (≈ 63.2 µM) | 30 µg/mL (≈ 94.8 µM) | 25 µg/mL (≈ 79 µM) | 31.6 µM |  | 
4 | CC(=O)NC[C@H]1CN(c2ccc(N3CCOCC3)c(F)c2)C(=O)O1 [LINEZOLID] |  | 2.5 µg/mL (≈ 7.41 µM) | 2 µg/mL (≈ 5.93 µM) | 3 µg/mL (≈ 8.89 µM) | 15.9 µM |  | 
5 | Cc1cccc2cc(/C=N/c3ccc(N4CCOCC4)c(F)c3)c(Cl)nc12 | 0.44 | 3.5 µg/mL (≈ 9.12 µM) | 10 µg/mL (≈ 26.1 µM) | 10 µg/mL (≈ 26.1 µM) | 15.6 µM | Active | Non-toxic

More lines, in order of falling MIC (Pseudomonas aeruginosa [2]), values ahead:

Row | Rf [1] | MIC (Pseudomonas aeruginosa [2]) | MIC (Escherichia coli) | MIC (Bacillus subtilis) | IC50 (Pseudomonas aeruginosa [3]) | SMILES | inhibition (Pseudomonas aeruginosa [4]) | Activity (Pseudomonas aeruginosa [5])
6 | 0.61 | 30 µg/mL (≈ 109 µM) | 35 µg/mL (≈ 128 µM) | 40 µg/mL (≈ 146 µM) | 35.9 µM | Fc1cc(/N=C/c2ccoc2)ccc1N1CCOCC1 |  | 
7 | 0.48 | 30 µg/mL (≈ 84.9 µM) | 25 µg/mL (≈ 70.8 µM) | 20 µg/mL (≈ 56.6 µM) | 27.5 µM | Fc1cc(/N=C/c2c(Cl)cccc2Cl)ccc1N1CCOCC1 |  | 
8 | 0.52 | 25 µg/mL (≈ 77.3 µM) | 40 µg/mL (≈ 124 µM) | 35 µg/mL (≈ 108 µM) | 29.1 µM | Fc1cc(/N=C/c2c[nH]c3ccccc23)ccc1N1CCOCC1 |  | 
9 | 0.55 | 20 µg/mL (≈ 58.1 µM) | 20 µg/mL (≈ 58.1 µM) | 20 µg/mL (≈ 58.1 µM) | 27.9 µM | COc1ccc(/C=N/c2ccc(N3CCOCC3)c(F)c2)cc1OC |  | 
10 | 0.52 | 20 µg/mL (≈ 66.2 µM) | 30 µg/mL (≈ 99.2 µM) | 20 µg/mL (≈ 66.2 µM) | 31.1 µM | Fc1ccc(/C=N/c2ccc(N3CCOCC3)c(F)c2)cc1 |  | 
11 | 0.46 | 2.5 µg/mL (≈ 6.76 µM) | 10 µg/mL (≈ 27 µM) | 5 µg/mL (≈ 13.5 µM) | 13 µM | Fc1cc(/N=C/c2cc3ccccc3nc2Cl)ccc1N1CCOCC1 | Active | Non-toxic
